Results on 14 compounds are retold here after US9708336B2, “Metallo-beta-lactamase inhibitors” (priority 2014, dated 2017).

One assay deals with NDM-1 (Klebsiella pneumoniae, UniProt C7C422). Description: biochemical. The assay is classed as biochemical. The conditions noted are these: NDM-1 enzyme, CCF2-FA fluorescence assay; read-out: NDM-1 IC50.
In the next assay the target is IMP-1 (Serratia marcescens, UniProt P52699). The assay is described as follows: biochemical. The assay is classed as biochemical. The conditions noted are these: IMP-1 enzyme, CCF2-FA fluorescence assay; read-out: IMP-1 IC50.
Sequence of IMP-1 (P52699 whole entry, looked up): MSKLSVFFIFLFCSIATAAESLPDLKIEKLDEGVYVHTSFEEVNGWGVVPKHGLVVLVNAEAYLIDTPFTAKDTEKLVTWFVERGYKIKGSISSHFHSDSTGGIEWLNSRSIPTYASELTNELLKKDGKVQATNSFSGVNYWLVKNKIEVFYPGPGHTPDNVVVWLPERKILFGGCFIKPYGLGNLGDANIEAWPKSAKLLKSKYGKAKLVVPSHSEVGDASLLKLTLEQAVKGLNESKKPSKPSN
The next assay has as its target VIM-1 (Pseudomonas aeruginosa (strain ATCC 15692 / DSM 22644 / CIP 104116 / JCM 14847 / LMG 12228 / 1C / PRS 101 / PAO1), UniProt A0A0F7KYQ8). Description: Enzyme activity: determination of IC50, fluorescence assay with CCF2-FA substrate (VIM-1). Type of assay: biochemical. The conditions noted are these: CCF2-FA fluorescence assay.
In assay [1] the test system is Escherichia coli expressing NDM-1 (CLB30016). The assay is described as follows: Antibiotic potentiation activity: synergistic concentration (MITC95) with imipenem, OD600 growth. The conditions noted are these: Escherichia coli expressing NDM-1 (CLB30016), 95% growth inhibition. The assay is classed as cell-based. In a few lines:
(§1)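 CLB30005 was precultured on Mueller Hinton agar with 8 ug/ml imipenem, the other strains on trypticase soy agar with 5% sheep blood, overnight at 35 °C. Saline suspensions diluted 1:100 in 1.1× CAMHB received compound and 4 μg/ml imipenem, then 22–24 h at 35 °C before absorbance reading.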

For assay [2], the system named is Klebsiella pneumoniae expressing VIM-1 (IHMA599644). The description is as above. The assay is classed as cell-based. The conditions noted are these: Klebsiella pneumoniae expressing VIM-1 (IHMA599644), 95% growth inhibition. In a few lines: as §1
The subject of assay [3] is Serratia marcescens expressing IMP-1 (CL5741). Described as above. Type of assay: cell-based. The following applies: Serratia marcescens expressing IMP-1 (CL5741), 95% growth inhibition. In a few lines:
as §1

[4] abbreviates: VIM-1 enzyme, read-out: VIM-1 IC50.

pIC50: −log10 of the molar value. Read-outs that look alike come from different tables or passages of the source. Where only a bound is given, the exact number is not on record here.

Sequence of NDM-1 (C7C422 whole entry, looked up, species assumed): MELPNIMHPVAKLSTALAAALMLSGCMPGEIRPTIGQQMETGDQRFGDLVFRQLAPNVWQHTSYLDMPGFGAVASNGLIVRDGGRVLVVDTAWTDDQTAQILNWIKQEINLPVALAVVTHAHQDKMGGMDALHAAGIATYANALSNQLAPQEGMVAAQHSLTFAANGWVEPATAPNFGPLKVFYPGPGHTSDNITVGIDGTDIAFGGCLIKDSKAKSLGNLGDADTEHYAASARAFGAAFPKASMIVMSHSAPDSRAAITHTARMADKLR

As usually defined, the pIC50 is the IC50 on a negative log10 scale, so that one unit is a factor of ten. Regarding `Cn1cncc1C[C@@H](NCc1ccc(-c2cccc(S(N)(=O)=O)c2-c2nnn[nH]2)cc1)C(=O)O` [Example 363, 3-methyl-N-{[3′-sulfamoyl-2′-(1H-tetrazol-5-yl)biphenyl-4-yl]methyl}-D-histidine], the negative-log IC50 (pIC50) at NDM-1 was 7.67; at IMP-1, 6.63; on VIM-1 (setting [4]), 6.31. Further, in assay [1], the “Escherichia coli MITC95” value worked out at 3.125 µM. For the same compound, the “Klebsiella pneumoniae MITC95” value in assay [2] turned out to be 100 µM. Besides, the “Serratia marcescens MITC95” value in assay [3] worked out at 6.25 µM.

Consider `CN(CC(=O)O)Cc1ccc(-c2cccc(S(N)(=O)=O)c2-c2nnn[nH]2)cc1` [Example 364, N-methyl-N-{[3′-sulfamoyl-2′-(1H-tetrazol-5-yl)biphenyl-4-yl]methyl}glycine], for which the pIC50 was 8.04 on NDM-1, 7.00 at IMP-1 and 6.67 on VIM-1 (setting [4]). The “Escherichia coli MITC95” value in assay [1] stood at 1.563 µM. Moreover, the “Klebsiella pneumoniae MITC95” value in assay [2] was found to be 25 µM. Further, the “Serratia marcescens MITC95” value in assay [3] came out at 3.125 µM.

Regarding `NS(=O)(=O)c1cccc(-c2ccc(CN[C@H]3COC[C@@H]3O)cc2)c1-c1nnn[nH]1` [Example 365, 4′-({[(3S,4R)-4-hydroxytetrahydrofuran-3-yl]amino}methyl)-2-(1H-tetrazol-5-yl)biphenyl-3-sulfonamide], the figures for the pIC50 at NDM-1, on IMP-1 and at VIM-1 (setting [4]) were 8.27, 7.28 and 6.41, respectively. For the same compound, in assay [1], the “Escherichia coli MITC95” value was 1.563 µM. Moreover, in assay [2], the “Klebsiella pneumoniae MITC95” value turned out to be 75 µM. In assay [3], the “Serratia marcescens MITC95” value turned out to be 2.344 µM.

Regarding `CN(C)CCCN(C)Cc1ccc(-c2cccc(S(N)(=O)=O)c2-c2nnn[nH]2)cc1` [Example 368, 4′-({[3-(dimethylamino)propyl](methyl)amino}methyl)-2-(1H-tetrazol-5-yl)biphenyl-3-sulfonamide], the pIC50 on NDM-1 was 7.63; at IMP-1 it was 6.38; at VIM-1 (setting [4]) it was 5.78. Also, in assay [1], the “Escherichia coli MITC95” value came out at 1.563 µM. Also, the “Klebsiella pneumoniae MITC95” value in assay [2] is >200 µM. The “Serratia marcescens MITC95” value in assay [3] was 9.375 µM.

Turning to `NS(=O)(=O)c1cccc(-c2ccc(CN[C@@H]3CC[C@H](O)C3)cc2)c1-c1nnn[nH]1` [Example 369, 4′-({[(1R,3S)-3-hydroxycyclopentyl]amino}methyl)-2-(1H-tetrazol-5-yl)biphenyl-3-sulfonamide], the pIC50 on NDM-1 is 7.60; at IMP-1, 6.14; at VIM-1 (setting [4]) it was 6.18. The “Escherichia coli MITC95” value in assay [1] came out at 3.125 µM. Further, in assay [2], the “Klebsiella pneumoniae MITC95” value amounted to 200 µM. In assay [3], the “Serratia marcescens MITC95” value was determined as 12.5 µM.

For `CNC(=O)CNCc1ccc(-c2cccc(S(N)(=O)=O)c2-c2nnn[nH]2)cc1` [Example 371, N-methyl-N~2~-{[3′-sulfamoyl-2′-(1H-tetrazol-5-yl)biphenyl-4-yl]methyl}glycinamide], the pIC50 at NDM-1 is 8.07; on IMP-1, 7.11; at VIM-1 (setting [4]), 6.43. Also, the “Escherichia coli MITC95” value in assay [1] stood at 0.7813 µM. Also, in assay [2], the “Klebsiella pneumoniae MITC95” value was determined as 100 µM. Besides, the “Serratia marcescens MITC95” value in assay [3] came to 2.344 µM.

As to `NS(=O)(=O)c1cccc(-c2ccc(CN3CC(F)(F)C3)cc2)c1-c1nnn[nH]1` [Example 372, 4′-[(3,3-difluoroazetidin-1-yl)methyl]-2-(1H-tetrazol-5-yl)biphenyl-3-sulfonamide], the pIC50 was 8.31 at NDM-1, 7.80 on IMP-1 and 6.33 on VIM-1 (setting [4]). Besides, the “Escherichia coli MITC95” value in assay [1] amounted to 7.813 µM. Also, in assay [2], the “Klebsiella pneumoniae MITC95” value is >200 µM. In assay [3], the “Serratia marcescens MITC95” value stood at 1.563 µM.

In the case of `NS(=O)(=O)c1cccc(-c2ccc(CNC[C@@]3(O)CCOC3)cc2)c1-c1nnn[nH]1` [Example 373, 4′-[({[(3S)-3-hydroxytetrahydrofuran-3-yl]methyl}amino)methyl]-2-(1H-tetrazol-5-yl)biphenyl-3-sulfonamide], the pIC50 at NDM-1 is 7.95; on IMP-1, 6.61; on VIM-1 (setting [4]), 6.62. For the same compound, the “Escherichia coli MITC95” value in assay [1] stood at 1.563 µM. Further, the “Klebsiella pneumoniae MITC95” value in assay [2] worked out at 50 µM. Besides, the “Serratia marcescens MITC95” value in assay [3] is 3.125 µM.

Take `NS(=O)(=O)c1cccc(-c2ccc(CNC(CO)CO)cc2)c1-c1nnn[nH]1` [Example 374, 4′-({[2-hydroxy-1-(hydroxymethyl)ethyl]amino}methyl)-2-(1H-tetrazol-5-yl)biphenyl-3-sulfonamide]: the values for the pIC50 on NDM-1, at IMP-1 and at VIM-1 (setting [4]) were 7.80, 6.58 and 6.56, respectively. Moreover, the “Escherichia coli MITC95” value in assay [1] is 0.7813 µM. For the same compound, in assay [2], the “Klebsiella pneumoniae MITC95” value stood at 37.5 µM. Further, in assay [3], the “Serratia marcescens MITC95” value was found to be 3.125 µM.

Take `NS(=O)(=O)c1cccc(-c2ccc(CNC3CCC(=O)NC3)cc2)c1-c1nnn[nH]1` (stereo not drawn) [Example 375, 4′-{[(6-oxopiperidin-3-yl)amino]methyl}-2-(1H-tetrazol-5-yl)biphenyl-3-sulfonamide]: the pIC50 at NDM-1 was 8.21; at IMP-1 it was 7.01; on VIM-1 (setting [4]) it was 6.27. The “Escherichia coli MITC95” value in assay [1] turned out to be 1.563 µM. Further, the “Klebsiella pneumoniae MITC95” value in assay [2] was >200 µM. Further, the “Serratia marcescens MITC95” value in assay [3] was determined as 3.125 µM.

Regarding `NS(=O)(=O)c1cccc(-c2ccc(CNCC3(O)CCC3)cc2)c1-c1nnn[nH]1` [Example 376, 4′-({[(1-hydroxycyclobutyl)methyl]amino}methyl)-2-(1H-tetrazol-5-yl)biphenyl-3-sulfonamide], the pIC50 on NDM-1 is 7.84; at IMP-1 it was 7.01; against VIM-1 (VIM-1 IC50, VIM-1 enzyme) it was 7.30. The “Escherichia coli MITC95” value in assay [1] came out at 2.344 µM. Besides, in assay [2], the “Klebsiella pneumoniae MITC95” value amounted to 15.63 µM. In addition, the “Serratia marcescens MITC95” value in assay [3] worked out at 4.688 µM.

As to `NS(=O)(=O)c1cccc(-c2ccc(CNCc3ccncn3)cc2)c1-c1nnn[nH]1` [Example 377, 4′-{[(pyrimidin-4-ylmethyl)amino]methyl}-2-(1H-tetrazol-5-yl)biphenyl-3-sulfonamide], the pIC50 was 8.28 at NDM-1; 7.13 on IMP-1; 6.59 against VIM-1 (VIM-1 IC50, VIM-1 enzyme). In addition, the “Escherichia coli MITC95” value in assay [1] is 1.563 µM. For the same compound, the “Klebsiella pneumoniae MITC95” value in assay [2] is 200 µM. In assay [3], the “Serratia marcescens MITC95” value stood at 3.125 µM.

Turning to `NS(=O)(=O)c1cccc(-c2ccc(CN3CCC3C(=O)O)cc2)c1-c1nnn[nH]1` (stereo not drawn) [Example 378, 1-{[3′-sulfamoyl-2′-(1H-tetrazol-5-yl)biphenyl-4-yl]methyl}azetidine-2-carboxylic acid], the pIC50 at NDM-1 was 7.61; at IMP-1, 6.58; at VIM-1 (setting [4]) it was 6.39. Also, the “Escherichia coli MITC95” value in assay [1] amounted to 3.125 µM. Moreover, in assay [2], the “Klebsiella pneumoniae MITC95” value was 50 µM. Moreover, the “Serratia marcescens MITC95” value in assay [3] was 6.25 µM.

As to `NS(=O)(=O)c1cccc(-c2ccc(CNC3CCN(C4CCCC4)CC3)cc2)c1-c1nnn[nH]1` [Example 379, 4′-{[(1-cyclopentylpiperidin-4-yl)amino]methyl}-2-(1H-tetrazol-5-yl)biphenyl-3-sulfonamide], the pIC50 is 7.56 at NDM-1, 6.50 at IMP-1 and 6.19 on VIM-1 (setting [4]). Besides, the “Escherichia coli MITC95” value in assay [1] was 1.563 µM. For the same compound, in assay [2], the “Klebsiella pneumoniae MITC95” value was 200 µM. The “Serratia marcescens MITC95” value in assay [3] stood at 4.688 µM.
